The values that follow are results of earlier work, collected in patent publication US8754096B2, “Piperidinone carboxamide azaindane CGRP receptor antagonists” (Merck Sharp & Dohme Corp., priority 2010, dated 2014).

This data set relates to migraine. Conditions: phase III clinical trials, orally bioavailable.

Turning to `O=C(N[C@@H]1CC[C@@H](c2cccc(F)c2F)CN(CC(F)(F)F)C1=O)N1CCC(n2c(=O)[nH]c3ncccc32)CC1` [telcagepant], the antimigraine effectiveness result is reported as “shown antimigraine effectiveness”.
